ChEMBL document CHEMBL3244272, “Folate antagonists. 15. 2,3-Diamino-6-(2-naphthylsulfonyl)quinazoline and related 2,4-diamino-6-[(phenyl and naphthyl)sulfinyl and sulfonyl]quinazolines, a potent new class of antimetabolites with phenomenal antimalarial activity” (J Med Chem, 1979)
Values after ≈ are worked out from the molar mass of the structure shown. Active and inactive are the calls of the source. The calls are words filed in the database; no cut-off is given here.

Columns and labels:
Enterococcus faecalis = test: Antibacterial activity against Streptococcus faecalis MGH-2 assessed as growth inhibition; format: functional
Staphylococcus aureus [1] = test: Antibacterial activity against Staphylococcus aureus UC-76 assessed as growth inhibition; format: functional
Staphylococcus aureus [2] = test: Antibacterial activity against Staphylococcus aureus S18713 assessed as growth inhibition; format: functional
Pseudomonas aeruginosa = test: Antibacterial activity against Pseudomonas aeruginosa 28 assessed as growth inhibition; format: functional
Escherichia coli = test: Antibacterial activity against Escherichia coli Vogel assessed as growth inhibition; format: functional
Shigella sonnei = test: Antibacterial activity against Shigella sonnei C-10 assessed as growth inhibition; format: functional
[3] = system: Mycobacterium tuberculosis; test: Antibacterial activity against Mycobacterium tuberculosis H37Rv assessed as growth inhibition; format: functional
Plasmodium berghei [4] = test: Antimalarial activity against trophozoite-induced Plasmodium berghei infected in sc dosed mouse assessed as minimum curative dose; format: functional
Plasmodium berghei [5] = test: Antimalarial activity against trophozoite-induced Plasmodium berghei infected in mouse assessed as change in mean survival time at 320 mg/kg, sc single dose after 72 hrs of infection; format: functional; conditions: route subcutaneous
Plasmodium berghei [6] = test: Antimalarial activity against trophozoite-induced Plasmodium berghei infected in mouse assessed as change in mean survival time at 160 mg/kg, sc single dose after 72 hrs of infection; format: functional; conditions: route subcutaneous
Plasmodium berghei [7] = test: Antimalarial activity against trophozoite-induced Plasmodium berghei infected in mouse assessed as change in mean survival time at 80 mg/kg, sc single dose after 72 hrs of infection; format: functional; conditions: route subcutaneous
Plasmodium berghei [8] = test: Antimalarial activity against trophozoite-induced Plasmodium berghei infected in mouse assessed as change in mean survival time at 40 mg/kg, sc single dose after 72 hrs of infection; format: functional; conditions: route subcutaneous
Plasmodium berghei [9] = test: Antimalarial activity against trophozoite-induced Plasmodium berghei infected in mouse assessed as change in mean survival time at 20 mg/kg, sc single dose after 72 hrs of infection; format: functional; conditions: route subcutaneous
Plasmodium berghei [10] = test: Antimalarial activity against trophozoite-induced Plasmodium berghei infected in mouse assessed as change in mean survival time at 10 mg/kg, sc single dose after 72 hrs of infection; format: functional; conditions: route subcutaneous
Plasmodium gallinaceum [11] = test: Antimalarial activity against trophozoite-induced Plasmodium gallinaceum infected in chick assessed as mean survival time at 120 mg/kg, sc single dose (reference value: 4 days); format: functional; conditions: route subcutaneous
Plasmodium gallinaceum [12] = test: Antimalarial activity against trophozoite-induced Plasmodium gallinaceum infected in chick assessed as cured at 120 mg/kg, sc single dose; format: functional, organism-based; design: dose 120 mg/kg
Gallus gallus = test: Toxicity in trophozoite-induced Plasmodium gallinaceum infected in chick assessed as death at 120 mg/kg, sc single dose measured within 48 hrs; format: organism-based; design: dose 120 mg/kg, route subcutaneous; conditions: chicken, in vivo
Plasmodium gallinaceum [13] = test: Antimalarial activity against sporozoite-induced Plasmodium gallinaceum infected in chick assessed as change in cured at 60 mg/kg, sc single dose; format: functional; conditions: route subcutaneous
Plasmodium gallinaceum [14] = test: Antimalarial activity against sporozoite-induced Plasmodium gallinaceum infected in chick assessed as change in cured at 30 mg/kg, sc single dose; format: functional; conditions: route subcutaneous
Plasmodium gallinaceum [15] = test: Antimalarial activity against sporozoite-induced Plasmodium gallinaceum infected in chick assessed as change in cured at 15 mg/kg, sc single dose; format: functional; conditions: route subcutaneous
Plasmodium berghei [16] = test: Antimalarial activity against trophozoite-induced Plasmodium berghei infected in mouse assessed as change in mean survival time at 5 mg/kg, sc single dose after 72 hrs of infection; format: functional; conditions: route subcutaneous
Plasmodium berghei [17] = test: Antimalarial activity against trophozoite-induced Plasmodium berghei infected in mouse assessed as change in mean survival time at 2.5 mg/kg, sc single dose after 72 hrs of infection; format: functional; conditions: route subcutaneous
Plasmodium berghei [18] = test: Antimalarial activity against trophozoite-induced Plasmodium berghei infected in mouse assessed as change in mean survival time at 1.25 mg/kg, sc single dose after 72 hrs of infection; format: functional; conditions: route subcutaneous
Plasmodium gallinaceum [19] = test: Antimalarial activity against sporozoite-induced Plasmodium gallinaceum infected in chick assessed as change in cured at 7.5 mg/kg, sc single dose; format: functional; conditions: route subcutaneous
Plasmodium berghei [20] = test: Antimalarial activity against trophozoite-induced Plasmodium berghei infected in mouse assessed as change in mean survival time at 640 mg/kg, sc single dose after 72 hrs of infection; format: functional; conditions: route subcutaneous
Plasmodium gallinaceum [21] = test: Antimalarial activity against sporozoite-induced Plasmodium gallinaceum infected in chick assessed as change in cured at 120 mg/kg, sc single dose; format: functional; conditions: route subcutaneous
Plasmodium falciparum [22] = test: Antimalarial activity against chloroquine-sensitive, pyrimethamine-resistant Plasmodium falciparum Malayan Camp CH/Q infected in Aotus monkey assessed as dose required to >50% cures compound treated for 7 days; format: functional
Plasmodium falciparum [23] = test: Antimalarial activity against chloroquine-resistant, pyrimethamine-sensitive Plasmodium falciparum Vietnam Oak Knoll in Aotus monkey assessed as dose required to >50% cures compound treated for 7 days; format: functional
Plasmodium falciparum [24] = test: Antimalarial activity against Plasmodium falciparum Malayan Camp CH/Q infected in po once daily dosed Owl monkey assessed as curative dose compound treated for 7 days; format: functional
Plasmodium falciparum [25] = test: Antimalarial activity against Plasmodium falciparum Vietnam Oak Knoll in po once daily dosed Owl monkey assessed as curative dose compound treated for 7 days; format: functional
Plasmodium falciparum [26] = test: Antimalarial activity against Plasmodium falciparum Vietnam Smith in po once daily dosed Owl monkey assessed as curative dose compound treated for 7 days; format: functional
Plasmodium vivax [27] = test: Antimalarial activity against Plasmodium vivax New Guinea Chesson in po once daily dosed Owl monkey assessed as curative dose compound treated for 7 days; format: functional
Plasmodium vivax [28] = test: Antimalarial activity against Plasmodium vivax VietnamPalo Alto in po once daily dosed Owl monkey assessed as curative dose compound treated for 7 days; format: functional

| Structure (SMILES) | MIC (Enterococcus faecalis) [µg/mL] | MIC (Staphylococcus aureus [1]) [µg/mL] | MIC (Staphylococcus aureus [2]) [µg/mL] | MIC (Pseudomonas aeruginosa) [µg/mL] | MIC (Escherichia coli) [µg/mL] | MIC (Shigella sonnei) [µg/mL] | MIC [3] [µg/mL] | MCD (Plasmodium berghei [4]) [mg/kg] | MST (Plasmodium berghei [6]) [days] | MST (Plasmodium berghei [7]) [days] | MST (Plasmodium berghei [8]) [days] | MST (Plasmodium berghei [9]) [days] | MST (Plasmodium berghei [10]) [days] | MST (Plasmodium gallinaceum [13]) [days] | MST (Plasmodium gallinaceum [14]) [days] | MST (Plasmodium gallinaceum [15]) [days] | MST (Plasmodium berghei [16]) [days] | MST (Plasmodium berghei [17]) [days] | MST (Plasmodium berghei [18]) [days] | MST (Plasmodium gallinaceum [19]) [days] | other results |
| --- | --- | --- | --- | --- | --- | --- | --- | --- | --- | --- | --- | --- | --- | --- | --- | --- | --- | --- | --- | --- | --- |
| COc1cccc(S(=O)(=O)c2ccc3nc(N)nc(N)c3c2)c1 | < 0.25 | 1 (≈ 3.03 µM) | 2 (≈ 6.05 µM) | > 25 | 2.5 (≈ 7.57 µM) | > 25 | 25 (≈ 75.7 µM) | 320 | 13.2 | 12.5 | 8.9 | 3.9 | 1.1 | 0 | 0 | 0 | – | – | – | – | MST (Plasmodium berghei [5]): 23.9 days; MST (Plasmodium gallinaceum [11]): 13.2 days; Activity (Plasmodium gallinaceum [12]): Active; Activity (Gallus gallus): Toxic |
| Nc1nc(N)c2cc([S+]([O-])c3cccc(C(F)(F)F)c3)ccc2n1 (stereo unspecified) | < 0.25 | < 0.25 | < 0.25 | > 25 | > 25 | > 25 | – | 40 | – | – | – | 21.4 | 12.7 | – | – | – | 9.1 | 4.1 | 1.1 | 6.4 | – |
| Nc1nc(N)c2cc(S(=O)(=O)c3cccc(-c4ccccc4)c3)ccc2n1 | < 0.25 | 1 (≈ 2.66 µM) | 1.5 (≈ 3.98 µM) | > 25 | > 25 | > 25 | > 25 | 40 | – | – | 16.9 | 21.9 | 13.9 | – | 0 | 0 | 13.6 | 9.3 | 4.1 | 2.4 | – |
| Nc1nc(N)c2cc([S+]([O-])c3ccccc3)ccc2n1 (stereo unspecified) | < 0.25 | < 0.25 | < 0.25 | > 25 | 1.5 (≈ 5.28 µM) | 15 (≈ 52.8 µM) | 20 (≈ 70.3 µM) | 160 | – | 15.9 | 11.3 | 4.9 | 1.1 | – | 0 | 0 | – | – | – | 0 | – |
| Nc1nc(N)c2cc(S(=O)(=O)c3ccccc3-c3ccccc3)ccc2n1 | 0.25 (≈ 0.664 µM) | > 25 | > 25 | > 25 | > 25 | > 25 | – | 640 | 0.7 | 0.5 | 0.3 | 0.3 | – | – | – | – | – | – | – | – | MST (Plasmodium berghei [20]): 1.1 days; MST (Plasmodium berghei [5]): 0.7 days |
| Cc1c([S+]([O-])c2ccc3ccccc3c2)ccc2nc(N)nc(N)c12 (stereo unspecified) | < 0.25 | > 25 | > 25 | > 25 | > 25 | > 25 | – | 20 | – | – | – | – | – | 3.7 | 3.7 | 3.7 | 22.9 | 10.7 | 9.7 | 3.7 | – |
| Nc1nc(N)c2cc(S(=O)(=O)c3ccc(Cl)c(Cl)c3)ccc2n1 | < 0.25 | 0.5 (≈ 1.35 µM) | 1 (≈ 2.71 µM) | > 25 | 2.5 (≈ 6.77 µM) | 20 (≈ 54.2 µM) | 20 (≈ 54.2 µM) | 10 | – | – | – | 11.2 | 10.3 | – | – | – | 5.9 | 3.5 | 1.1 | – | MST (Plasmodium gallinaceum [21]): 0 days |
| Nc1nc(N)c2cc([S+]([O-])c3ccc(F)cc3)ccc2n1 (stereo unspecified) | – | – | – | – | – | – | – | 20 | – | 16.9 | 11.5 | 8.9 | 5.5 | 0.7 | 0.7 | 1 | – | – | – | – | – |
| Nc1nc(N)c2cc([S+]([O-])c3c(F)c(F)cc(F)c3F)ccc2n1 (stereo unspecified) | < 0.25 | 1 (≈ 2.81 µM) | 1.5 (≈ 4.21 µM) | > 25 | > 25 | > 25 | 25 (≈ 70.2 µM) | 80 | 16.7 | 13.9 | 10.7 | 0.9 | 0.5 | – | – | – | – | – | – | – | MST (Plasmodium gallinaceum [11]): 14.8 days; Activity (Plasmodium gallinaceum [12]): Active; Activity (Gallus gallus): Toxic |
| C=C[C@H]1CN2CC[C@H]1C[C@H]2[C@H](O)c1ccnc2ccc(OC)cc12.Cl [QUININE HYDROCHLORIDE] | – | – | – | – | – | – | – | – | – | – | – | – | – | – | – | – | – | – | – | – | Activity (Plasmodium falciparum [22]): 80 mg/kg; Activity (Plasmodium falciparum [23]): 40 mg/kg; CD90 (Plasmodium falciparum [24]): 20 mg/kg; CD90 (Plasmodium falciparum [25]): 80 mg/kg; CD90 (Plasmodium falciparum [26]): >80 mg/kg; CD90 (Plasmodium vivax [27]): 40 mg/kg; CD90 (Plasmodium vivax [28]): 40 mg/kg |
| COc1ccc([S+]([O-])c2ccc3nc(N)nc(N)c3c2)cc1 (stereo unspecified) | – | – | – | – | – | – | – | 20 | 25.9 | 13.2 | 10.5 | 2.7 | 0.7 | – | – | – | – | – | – | – | MST (Plasmodium gallinaceum [11]): 24.2 days; Activity (Plasmodium gallinaceum [12]): Active; Activity (Gallus gallus): Toxic |
| Nc1nc(N)c2cc([S+]([O-])c3ccccc3-c3ccccc3)ccc2n1 (stereo unspecified) | < 0.25 | 2.5 (≈ 6.94 µM) | 5 (≈ 13.9 µM) | > 25 | > 25 | > 25 | 25 (≈ 69.4 µM) | 640 | 3.3 | 0.5 | 0.3 | 0.3 | 0.3 | 3.7 | 0 | 0 | – | – | – | – | MST (Plasmodium berghei [20]): 12.7 days; MST (Plasmodium berghei [5]): 5.7 days |
| CCN(CC)CCCC(C)Nc1ccnc2cc(Cl)ccc12 (stereo unspecified) [CHLOROQUINE] | – | – | – | – | – | – | – | – | – | – | – | – | – | – | – | – | – | – | – | – | Activity (Plasmodium falciparum [22]): 5 mg/kg; Activity (Plasmodium falciparum [23]): >20 mg/kg; CD90 (Plasmodium falciparum [24]): 5 mg/kg; CD90 (Plasmodium falciparum [25]): 2 mg/kg; CD90 (Plasmodium falciparum [26]): >20 mg/kg; CD90 (Plasmodium vivax [27]): 2.5 mg/kg; CD90 (Plasmodium vivax [28]): 2.5 mg/kg |
